The results in this text go back to patent publication US6936608B2, “Imidazo-triazine derivatives as ligands for GABA receptors” (Merck Sharp & Dohme Ltd., priority 2000, dated 2005).

Where a name gives a salt, the structure may show the parent alone.

As for `CC(C)(O)c1cnn2c(-c3ccc(F)c(-c4ccc(F)cn4)c3)cnc2n1` [Example 29, 2-{7-[4-Fluoro-3-(5-fluoropyridin-2-yl)phenyl]imidazo[1,2-b][1,2,4]triazin-3-yl}propan-2-ol], the melting point (in general, the temperature, or range, at which the solid turns liquid) is 222 °C.

For `N#Cc1ccccc1-c1cccc(-c2cnc3nc(C(F)(F)F)cnn23)c1F` [Example 7, 2′-Fluoro-3′-(3-trifluoromethylimidazo[1,2-b][1,2,4]triazin-7-yl)biphenyl-2-carbonitrile], the melting point fell in the range of 167 to 168 °C.

The compound `CC(C)(F)c1cnn2c(-c3ccc(F)c(-c4cccnc4)c3)cnc2n1` (as salt: hydrochloride) [Example 3, 3-(1-Fluoro-1-methylethyl)-7-[4-fluoro-3-(pyridin-3-yl)phenyl]imidazo[1,2-b][1,2,4]triazine] had a melting point of 113 to 126 °C.

Compound `CC(C)(O)c1cnn2c(-c3cccc(-c4ccccc4C#N)c3)cnc2n1` [Example 22, 3′-[3-(1-Hydroxy-1-methylethyl)imidazo[1,2-b][1,2,4]triazin-7-yl]biphenyl-2-carbonitrile] showed a melting point of 166 °C.

The compound `N#Cc1ccccc1-c1cc(-c2cnc3nc(C(F)(F)F)cnn23)ccc1F` [Example 2, 2′-Fluoro-5′-(3-trifluoromethylimidazo[1,2-b][1,2,4]triazin-7-yl)biphenyl-2-carbonitrile] displayed a melting point of 168 to 174 °C.

Take `CC(C)(F)c1cnn2c(-c3ccc(F)c(-c4c(F)cccc4C#N)c3)cnc2n1` [Example 25, 6,2′-Difluoro-5′-[3-(1-fluoro-1-methylethyl)imidazo[1,2-b][1,2,4]triazin-7-yl]biphenyl-2-carbonitrile]: the melting point lay within 187 to 188 °C.

Turning to `N#Cc1ccccc1-c1cc(-c2cnc3nccnn23)ccc1F` [Example 5, 2′-Fluoro-5′-(imidazo[1,2-b][1,2,4]triazin-7-yl)biphenyl-2-carbonitrile], the melting point was 211 to 215 °C.

Turning to `CC(C)(O)c1cnn2c(-c3ccc(F)c(-c4cccnc4)c3)cnc2n1` [Example 14, 2-{7-[4-Fluoro-3-(pyridin-3-yl)phenyl]imidazo[1,2-b][1,2,4]triazin-3-yl}propan-2-ol], the melting point was 199 to 200 °C.

Consider `CC(C)(O)c1cnn2c(-c3cccc(-c4ccncc4)c3F)cnc2n1` [Example 19, 2-{7-[2-Fluoro-3-(pyridin-4-yl)phenyl]imidazo[1,2-b][1,2,4]triazin-3-yl}propan-2-ol], for which the melting point fell in the range of 221 to 223 °C.

Consider `Cc1cnn2c(-c3cccc(-c4ccccc4C#N)c3)cnc2n1` [Example 1, 3′-(3-methylimidazo[1,2-b][1,2,4]triazin-7-yl)biphenyl-2-carbonitrile], for which the melting point fell in the range of 211 to 216 °C.

The compound `Fc1ccc(-c2cnc3nc(C(F)(F)F)cnn23)cc1-c1ccccn1` [Example 6, 7-[4-Fluoro-3-(pyridin-2-yl)phenyl]-3-trifluoromethylimidazo[1,2-b][1,2,4]triazine] gave a melting point of 128 to 131 °C.

The compound `CC(C)(O)c1cnn2c(-c3ccc(F)c(-c4ccccc4C#N)c3)cnc2n1` [Example 16, 2′-Fluoro-5′-[3-(1-hydroxy-1-methylethyl)imidazo[1,2-b][1,2,4]triazin-7-yl]biphenyl-2-carbonitrile] returned a melting point of 187 °C.

In the case of `CC(C)(O)c1cnn2c(-c3ccc(F)c(-c4ccncc4)c3)cnc2n1` [Example 15, 2-{7-[4-Fluoro-3-(pyridin-4-yl)phenyl]imidazo[1,2-b][1,2,4]triazin-3-yl}propan-2-ol], the melting point was in the range of 233 to 237 °C.
